Test results taken from ChEMBL document CHEMBL5257055, “Contemporary Progress and Opportunities in RNA-Targeted Drug Discovery” (ACS Med Chem Lett, 2023).
Numbered stars: 1 amine (or outer) side, 2 acyl side, 3 side chain; on linkers, the order of the positions; unused ones are H or OH. Bridge positions count the residues as written; N and C are the ends. Peptide text beside a SMILES is read from it. X1 = CCC(C)CCCCCCCCC(CC(=O)[*:1])O[*:2]

Assays:
[1] = Binding affinity to CUG repeat RNA (unknown origin) assessed as dissociation constant
[2] = Binding affinity to CAG repeat RNA (unknown origin) assessed as dissociation constant
[3] = Binding affinity to pre-miR-544 (unknown origin) assessed as dissociation constant
[4] = Binding affinity to HCV IRES; design: species or system Hepacivirus hominis
[5] = Binding affinity to pre-miR-96 (unknown origin) assessed as dissociation constant
[6] = Binding affinity to pre-miR-210 (unknown origin) assessed as dissociation constant
[7] = Binding affinity to CGG repeat RNA (unknown origin) assessed as dissociation constant
[8] = Binding affinity to SARS-CoV-2 Attenuator hairpin RNA by MST assay; design: species or system Severe acute respiratory syndrome coronavirus 2
[9] = Binding affinity to pre-miR-200c (unknown origin) assessed as dissociation constant
[10] = Binding affinity to HCV RNA; design: species or system Hepacivirus hominis
FMN riboswitch = experiment: Binding affinity to Escherichia coli FMN riboswitch RNA assessed as dissociation constant; assay type: nucleic-acid assay
[11] = Binding affinity to pre-miR-27a (unknown origin) assessed as dissociation constant
[12] = Binding affinity to XIST RNA (unknown origin)
[13] = Binding affinity to preQ1
[14] = Binding affinity to mouse MALAT1 assessed as dissociation constant
[15] = Binding affinity to pre-miR-21 (unknown origin) assessed as dissociation constant
Sulfhydryl oxidase 1 = molecular target: T1, Sulfhydryl oxidase 1 (Homo sapiens, UniProt O00391); experiment: Binding affinity to QSOX1 (unknown origin) assessed as dissociation constant
T1 sequence (O00391 whole entry): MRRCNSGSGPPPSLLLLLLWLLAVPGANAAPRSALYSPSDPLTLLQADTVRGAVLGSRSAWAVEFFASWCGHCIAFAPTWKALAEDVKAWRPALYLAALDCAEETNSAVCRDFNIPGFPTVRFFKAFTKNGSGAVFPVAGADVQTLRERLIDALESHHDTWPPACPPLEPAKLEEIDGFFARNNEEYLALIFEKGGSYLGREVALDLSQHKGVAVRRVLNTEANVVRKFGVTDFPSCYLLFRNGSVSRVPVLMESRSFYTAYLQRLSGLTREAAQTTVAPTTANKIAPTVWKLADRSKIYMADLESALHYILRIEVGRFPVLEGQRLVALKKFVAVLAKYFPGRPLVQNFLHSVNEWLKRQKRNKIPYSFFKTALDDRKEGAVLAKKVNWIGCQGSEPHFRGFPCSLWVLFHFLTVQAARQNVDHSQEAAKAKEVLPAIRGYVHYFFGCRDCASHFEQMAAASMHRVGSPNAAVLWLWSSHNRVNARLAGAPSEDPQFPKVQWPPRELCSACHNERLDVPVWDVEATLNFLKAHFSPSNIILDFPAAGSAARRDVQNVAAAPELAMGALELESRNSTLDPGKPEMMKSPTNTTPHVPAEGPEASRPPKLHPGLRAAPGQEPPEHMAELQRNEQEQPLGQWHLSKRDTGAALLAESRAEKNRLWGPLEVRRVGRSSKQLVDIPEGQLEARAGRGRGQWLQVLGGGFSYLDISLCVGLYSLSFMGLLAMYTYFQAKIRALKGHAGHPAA

[16] = Binding affinity to r(AUUCA) repeat RNA (unknown origin) assessed as dissociation constant
[17] = Binding affinity to pre-mRNA (unknown origin)
[18] = Binding affinity to HIV-1 RNA assessed as dissociation constant; design: species or system Human immunodeficiency virus 1

N#Cc1c(N2CCCC2)nc(N)c2c(N)nc(N3CCCC3)cc12
Kd [1]: 125 nM
Kd [2]: 1400 nM
Kd [3]: 1000 nM

CN(C)CC1COc2ccc3nc4n(c3c2C1)CC(CN(C)C)CN4 (stereo not drawn)
Kd [4]: 720 nM

CN1CCN(c2ccc3nc(-c4ccc5[nH]c(-c6cccc(OCCCC(=O)NCCCN=[N+]=[N-])c6)nc5c4)[nH]c3c2)CC1
Kd [5]: 1500 nM
Kd [6]: 1700 nM
Kd [1]: 150 nM
Kd [7]: 375 nM

CNc1nc(Nc2cccc(C(=O)O)c2)nc2ccccc12
Kd [8]: 11 nM

O=C(Nc1ccc(C2=NCCN2)cc1)c1cc(C(=O)Nc2ccc(C3=NCCN3)cc2)cc(C(=O)Nc2ccc(C3=NCCN3)cc2)c1
Kd [9]: 1100 nM
Kd [10]: 849 nM

CNc1ncc(CN2CCCC(c3nc(O)cc(-c4cccs4)n3)C2)cn1 (stereo not drawn)
Kd (FMN riboswitch): 16 nM

C#CCN(CC(N)=O)C(=O)C[C@@H](Cc1c[nH]c2ccccc12)NC(=O)[C@H]1CC(NC(=O)Cn2c(=O)[nH]c3ccccc3c2=O)CN1 (stereo partly drawn)
Kd [11]: 90 nM

c1ccc(COc2cccc(-c3ccc4[nH]nc(-c5nc6ccccc6[nH]5)c4c3)c2)cc1
Kd [12]: 400 nM

NCCOc1ccc2oc3ccccc3c2c1
Kd [13]: 500 nM

O=C(NCCN1CCCC1)c1ccc2oc(C(=O)c3cc(O)c(O)c(O)c3)cc2c1
Kd [4]: 360 nM

COc1ccc(-c2cnc(NCc3cccc(OC)c3)n2C)cc1
Kd [14]: 2900 nM

NC(=O)CNC(=O)[C@H](Cc1ccc(Cl)cc1)NC(=O)c1ccc2nc(-c3ccccc3)[nH]c2c1
Kd [1]: 6300 nM

CN(C)c1nc(N)c(C(=O)NC(=N)N)nc1C#Cc1ccccc1
Kd [4]: 520 nM

C#CCCC1(CCC(=O)Nc2ccc(OC)c(OCc3cn4ccccc4n3)c2)N=N1
Kd [15]: 256 nM

C#CCCC1(CCC(=O)N(C)[C@@H]2CC[C@H](c3ccc(Cl)c(Cl)c3)c3ccccc32)N=N1
Kd (Sulfhydryl oxidase 1): 16000 nM

Cc1ccc(C(=O)N2Cc3ccccc3C[C@H]2C(N)=O)cc1NCc1c(F)ccc(O)c1F
Kd [11]: 94 nM

CCC(C)CCCCCCCCC1CC(=O)N[C@@H](CCC(=O)O)C(=O)N[C@@H](CC(C)C)C(=O)N[C@@H](CC(C)C)C(=O)N[C@@H](C(C)C)C(=O)N[C@@H](CC(=O)O)C(=O)N[C@@H](CC(C)C)C(=O)N[C@@H](CC(C)C)C(=O)O1 (stereo partly drawn) (ELLVDLL; linker N-C via X1)
Kd [15]: 780 nM

N=C(N)c1ccc(-c2ccc(-c3ccc(C(=N)N)cc3)o2)cc1 [FURAMIDINE]
Kd [16]: 170 nM
Kd [14]: 560 nM

O=C1c2c(O)ccc(O)c2C(=O)c2c(NCCNCCO)ccc(NCCNCCO)c21 [MITOXANTRONE]
Kd [17]: < 1000 nM
Kd [15]: 33 nM

CC(=O)c1c(C)c2cnc(Nc3ccc(N4CCNCC4)cn3)nc2n(C2CCCC2)c1=O [PALBOCICLIB]
Kd [18]: 104 nM
